The values that follow come from ChEMBL document CHEMBL1201862, “PubChem BioAssay data set” (2004).

Each structure is given as a SMILES string. The source made the active and inactive calls. A value given as a limit tells only on which side of the number the result lay.

Experiment [1] deals with T1, Neuropeptides B/W receptor type 1 (Homo sapiens, UniProt P48145).
T1 sequence (P48145 whole entry): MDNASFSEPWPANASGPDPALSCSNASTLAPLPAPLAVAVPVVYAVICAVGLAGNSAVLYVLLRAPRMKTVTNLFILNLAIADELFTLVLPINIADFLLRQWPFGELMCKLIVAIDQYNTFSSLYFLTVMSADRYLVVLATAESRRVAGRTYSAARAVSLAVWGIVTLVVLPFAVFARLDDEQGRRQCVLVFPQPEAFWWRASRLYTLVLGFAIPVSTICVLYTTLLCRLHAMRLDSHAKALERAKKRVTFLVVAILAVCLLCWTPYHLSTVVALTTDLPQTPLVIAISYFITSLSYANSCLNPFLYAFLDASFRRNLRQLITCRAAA
Nature of the experiment: human NPBW1 receptor blockade, IC50 – cell-based, fluorescence, dose response, late-stage follow-up (AID 463251). It counts as functional.

Experiment [2] deals with Melanin-concentrating hormone receptor 1 (Homo sapiens, UniProt Q99705). The experiment in a line: Late-stage fluorescence-based counterscreen for antagonists of the G-protein coupled receptor 7 (GPR7): cell-based dose response assay to identify antagonists of the melanin-concentrating hormone receptor 1 (MCHR1). [Related pubchem assays (depositor defined):AID1861, AID1880, AID1952, AID2148, AID2251, AID2257, AID485339]. The class given is functional. (In general: A counterscreen serves to expose hits that act by an unwanted route or on another target.)

Experiment [3] deals with Aryl hydrocarbon receptor (Homo sapiens, UniProt P35869). Nature of the experiment: Luminescence-based cell-based high throughput dose response assay for activators of the Aryl Hydrocarbon Receptor (AHR). [Related pubchem assays: 2796 (Primary screen (AHR activators in singlicate)), 2845 (Confirmation screen (AHR activators in triplicate)), 434939 (Counterscreen (PXR activators in triplicate)), 2804 (Summary (AHR activators))]. The class given is ADME.

The target of experiment [4] is Eukaryotic translation initiation factor 4E (Mus musculus, UniProt P63073). Nature of the experiment: blockers of eIF4G binding by eIF4E – biochemical, TR-FRET, dose response (AID 855).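 Also: potency for disrupting eIF4E binding to eIF4GI seen as loss of FRET.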 It counts as functional. For orientation: TR-FRET usually uses a lanthanide donor and a delayed reading to cut background.
A short description of experiment [5]: Luminescence Cell-Based Dose Response HTS to Identify Inhibitors of 5'UTR Stem-Loop Driven Prion Protein mRNA Translation in H4 Neuroglioblastoma Cells. [Related pubchem assays: 1827 (Project Summary), 1813 (Primary HTS)]. The class given is functional.
The nature of experiment [6]: luciferase reporter signal suppression in cells – H4 neuroglioma cells, luminescence, dose response (AID 1990). It counts as functional, cell-based. A general note: A reporter such as luciferase makes a cellular process visible.
A further experiment has as its system H9c2. The experiment in a line: cells. It counts as functional, cell-based. The conditions noted are these: Rattus norvegicus, H9c2, Myocardium.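 Also: confirmatory concentration-response retest of ultra-high-throughput screening hits for modulation of myocardial damage; cell death induced by hydrogen peroxide oxidative stress; compound pretreatment for 60 min then peroxide exposure for 2 h; potency is for protecting the cells against peroxide damage rather than for killing them.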
The target of a further experiment is Caspase-7 (Homo sapiens, UniProt P55210). The experiment in a line: activation of caspase-7 zymogen – biochemical, absorbance, counter-screen for procaspase-3 activator project, dose response (AID 489013).
A short description of experiment [7]: Counterscreen for AddAB inhibitors: absorbance-based bacterial cell-based high throughput dose response assay for inhibitors of bacterial viability. [Related pubchem assays (depositor defined):AID435030, AID449728, AID449731, AID488942, AID488955, AID488956]. It counts as functional.
Another experiment concerns the target T2, Caspase-3 (Homo sapiens, UniProt P42574).
T2 sequence (P42574 whole entry): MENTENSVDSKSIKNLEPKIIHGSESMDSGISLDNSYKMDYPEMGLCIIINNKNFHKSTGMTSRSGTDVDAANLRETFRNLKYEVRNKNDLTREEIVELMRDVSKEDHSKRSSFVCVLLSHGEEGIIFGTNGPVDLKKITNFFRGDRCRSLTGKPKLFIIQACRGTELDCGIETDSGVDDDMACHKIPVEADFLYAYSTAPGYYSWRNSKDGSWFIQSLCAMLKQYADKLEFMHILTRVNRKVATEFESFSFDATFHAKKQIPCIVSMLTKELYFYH
The experiment in a line: activation of caspase-3 zymogen – biochemical, absorbance, dose response (AID 489014).

The target in another experiment is T3, Exodeoxyribonuclease V (Escherichia coli (strain K12), UniProt P04993+P07648+P08394).
T3 sequence (P04993 whole entry): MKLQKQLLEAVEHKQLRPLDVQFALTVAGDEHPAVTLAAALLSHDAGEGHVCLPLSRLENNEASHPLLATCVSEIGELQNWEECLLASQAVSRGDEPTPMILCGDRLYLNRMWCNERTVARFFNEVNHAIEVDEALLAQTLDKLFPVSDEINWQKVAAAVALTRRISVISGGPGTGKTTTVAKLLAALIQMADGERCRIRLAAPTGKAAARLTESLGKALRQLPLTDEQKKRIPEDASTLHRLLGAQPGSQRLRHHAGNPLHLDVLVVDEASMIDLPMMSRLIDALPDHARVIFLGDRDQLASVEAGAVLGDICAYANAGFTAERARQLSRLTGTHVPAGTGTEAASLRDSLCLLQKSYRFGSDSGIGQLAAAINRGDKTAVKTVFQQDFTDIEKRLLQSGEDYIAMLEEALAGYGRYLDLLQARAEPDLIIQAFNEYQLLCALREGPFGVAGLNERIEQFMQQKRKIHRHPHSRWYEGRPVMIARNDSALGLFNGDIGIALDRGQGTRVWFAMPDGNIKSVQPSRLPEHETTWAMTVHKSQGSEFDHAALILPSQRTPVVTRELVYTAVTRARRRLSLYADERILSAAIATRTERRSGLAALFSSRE
T3 sequence (P07648 whole entry): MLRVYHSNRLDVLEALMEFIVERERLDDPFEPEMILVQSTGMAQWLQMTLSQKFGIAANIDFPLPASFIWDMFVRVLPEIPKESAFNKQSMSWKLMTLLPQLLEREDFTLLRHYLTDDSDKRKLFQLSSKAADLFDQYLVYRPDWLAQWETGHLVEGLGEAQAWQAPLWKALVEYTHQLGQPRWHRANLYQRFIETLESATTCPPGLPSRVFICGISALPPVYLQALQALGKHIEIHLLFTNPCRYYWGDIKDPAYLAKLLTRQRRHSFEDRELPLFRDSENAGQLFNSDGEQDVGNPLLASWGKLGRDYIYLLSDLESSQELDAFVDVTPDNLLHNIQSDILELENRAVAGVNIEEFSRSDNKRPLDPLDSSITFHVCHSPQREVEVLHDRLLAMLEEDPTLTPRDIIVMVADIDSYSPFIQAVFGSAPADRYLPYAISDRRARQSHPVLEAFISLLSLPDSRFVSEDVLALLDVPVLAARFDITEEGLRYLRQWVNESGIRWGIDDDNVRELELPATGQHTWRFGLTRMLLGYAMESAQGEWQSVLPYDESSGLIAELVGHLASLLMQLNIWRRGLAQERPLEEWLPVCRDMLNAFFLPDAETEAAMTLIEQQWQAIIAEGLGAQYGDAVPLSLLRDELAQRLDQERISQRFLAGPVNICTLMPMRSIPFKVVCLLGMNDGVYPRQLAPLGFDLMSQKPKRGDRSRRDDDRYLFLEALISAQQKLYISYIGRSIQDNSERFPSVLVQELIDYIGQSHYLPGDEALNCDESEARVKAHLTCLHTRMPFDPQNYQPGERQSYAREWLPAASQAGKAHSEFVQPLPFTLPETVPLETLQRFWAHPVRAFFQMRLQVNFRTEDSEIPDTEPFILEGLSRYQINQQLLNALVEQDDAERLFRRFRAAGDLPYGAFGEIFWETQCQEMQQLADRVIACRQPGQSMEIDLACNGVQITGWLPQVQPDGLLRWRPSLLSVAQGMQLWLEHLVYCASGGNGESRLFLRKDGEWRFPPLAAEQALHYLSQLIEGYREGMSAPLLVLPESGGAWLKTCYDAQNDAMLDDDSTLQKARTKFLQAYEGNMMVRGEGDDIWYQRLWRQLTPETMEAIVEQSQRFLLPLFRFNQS
T3 sequence (P08394 whole entry): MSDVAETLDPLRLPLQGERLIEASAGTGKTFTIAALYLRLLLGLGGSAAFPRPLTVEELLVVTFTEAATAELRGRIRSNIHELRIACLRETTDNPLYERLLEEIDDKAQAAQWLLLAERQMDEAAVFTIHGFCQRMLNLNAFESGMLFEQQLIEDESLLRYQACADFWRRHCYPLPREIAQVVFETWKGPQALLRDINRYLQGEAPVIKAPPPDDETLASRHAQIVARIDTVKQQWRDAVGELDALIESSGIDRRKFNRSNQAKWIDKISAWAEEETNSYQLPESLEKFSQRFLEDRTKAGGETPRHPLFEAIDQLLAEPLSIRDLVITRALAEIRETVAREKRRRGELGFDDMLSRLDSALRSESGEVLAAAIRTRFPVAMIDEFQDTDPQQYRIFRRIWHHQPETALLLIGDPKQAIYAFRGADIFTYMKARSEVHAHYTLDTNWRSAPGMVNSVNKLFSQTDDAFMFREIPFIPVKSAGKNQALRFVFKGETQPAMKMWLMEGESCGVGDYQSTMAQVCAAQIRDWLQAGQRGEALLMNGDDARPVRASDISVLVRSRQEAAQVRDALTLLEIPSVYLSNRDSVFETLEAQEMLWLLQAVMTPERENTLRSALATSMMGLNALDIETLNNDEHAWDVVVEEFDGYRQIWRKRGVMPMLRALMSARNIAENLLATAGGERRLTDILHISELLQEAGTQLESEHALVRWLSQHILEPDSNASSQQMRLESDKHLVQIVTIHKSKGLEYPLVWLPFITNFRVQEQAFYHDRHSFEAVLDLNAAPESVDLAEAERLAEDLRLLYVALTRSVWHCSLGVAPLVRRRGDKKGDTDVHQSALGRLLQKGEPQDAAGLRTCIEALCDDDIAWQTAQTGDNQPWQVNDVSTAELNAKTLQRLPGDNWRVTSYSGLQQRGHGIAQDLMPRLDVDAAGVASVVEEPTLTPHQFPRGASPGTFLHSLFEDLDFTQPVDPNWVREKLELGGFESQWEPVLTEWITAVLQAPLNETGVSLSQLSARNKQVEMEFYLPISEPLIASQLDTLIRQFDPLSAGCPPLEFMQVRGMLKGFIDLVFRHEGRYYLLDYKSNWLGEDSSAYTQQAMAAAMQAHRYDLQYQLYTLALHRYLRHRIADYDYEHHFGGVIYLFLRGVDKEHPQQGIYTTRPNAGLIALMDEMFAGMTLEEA
Nature of the experiment: RecBCD inhibition via phage-restricted bacterial growth – absorbance, V66 E. coli, mutant T4 phage, counter-screen for AddAB inhibitor project, dose response (AID 492957). It counts as functional, cell-based, Escherichia coli str. K-12 substr. MG1655.

For the next experiment, the system named is INS1. Nature of the experiment: INS-1E survival protection against cytokine death – cell-based, luminescence, retest, dose response (AID 449756).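 Also: cell death triggered by IL-1 beta plus TNF-alpha plus IFN-gamma mixture; protective hits raise ATP signal compared with cytokine alone wells.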 It counts as functional. The settings on record: Rattus norvegicus.
Experiment [8] can be described thus: alpha-synuclein stem-loop luciferase translation blockers – H4 neuroglioma cells, luminescence, confirmation (AID 1988). It counts as functional, cell-based.
For experiment [9], the target named is T4, Polyadenylate-binding protein 1 (Homo sapiens, UniProt P11940). The experiment in a line: MLLE binding blockers, Cy5 peptide tracer – biochemical, fluorescence polarization, Cy5-PAM2 peptide, secondary, miRNA deadenylation inhibitor project, dose response (AID 602260). The class given is functional. The settings on record: read-out: IC50_Mean.
For experiment [10], the target named is T4, Polyadenylate-binding protein 1. The experiment in a line: MLLE domain peptide-binding blockers, IC50 – biochemical, fluorescence polarization, FITC-PAM2 peptide, dose response (AID 602259). The class given is functional. The conditions noted are these: read-out: IC50_Mean.
For experiment [11], the target named is DNA dC->dU-editing enzyme APOBEC-3G (Homo sapiens, UniProt Q9HC16). The experiment in a line: Dose Response confirmation of small molecule APOBEC3G DNA Deaminase Inhibitors via a fluorescence-based single-stranded DNA deaminase assay. [Related pubchem assays (depositor defined):AID493012, AID493028]. It counts as functional.

As usually defined, the EC50 is the midpoint of the concentration-response curve. In general, AC50 refers to the concentration at which the activity in the assay is half-maximal.

Chain of Caspase-7 (P55210 24-198 limits assumed): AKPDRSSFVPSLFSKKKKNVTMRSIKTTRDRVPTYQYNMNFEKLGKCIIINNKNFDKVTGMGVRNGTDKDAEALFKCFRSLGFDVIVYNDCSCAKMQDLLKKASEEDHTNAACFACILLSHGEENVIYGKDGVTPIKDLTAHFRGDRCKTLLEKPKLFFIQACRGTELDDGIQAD
Chain of Caspase-7 (P55210 207-303 limits assumed): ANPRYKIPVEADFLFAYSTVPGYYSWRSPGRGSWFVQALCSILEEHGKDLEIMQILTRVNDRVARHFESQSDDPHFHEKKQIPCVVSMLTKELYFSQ
T4 sequence (P11940 whole entry, the tested form may be a part): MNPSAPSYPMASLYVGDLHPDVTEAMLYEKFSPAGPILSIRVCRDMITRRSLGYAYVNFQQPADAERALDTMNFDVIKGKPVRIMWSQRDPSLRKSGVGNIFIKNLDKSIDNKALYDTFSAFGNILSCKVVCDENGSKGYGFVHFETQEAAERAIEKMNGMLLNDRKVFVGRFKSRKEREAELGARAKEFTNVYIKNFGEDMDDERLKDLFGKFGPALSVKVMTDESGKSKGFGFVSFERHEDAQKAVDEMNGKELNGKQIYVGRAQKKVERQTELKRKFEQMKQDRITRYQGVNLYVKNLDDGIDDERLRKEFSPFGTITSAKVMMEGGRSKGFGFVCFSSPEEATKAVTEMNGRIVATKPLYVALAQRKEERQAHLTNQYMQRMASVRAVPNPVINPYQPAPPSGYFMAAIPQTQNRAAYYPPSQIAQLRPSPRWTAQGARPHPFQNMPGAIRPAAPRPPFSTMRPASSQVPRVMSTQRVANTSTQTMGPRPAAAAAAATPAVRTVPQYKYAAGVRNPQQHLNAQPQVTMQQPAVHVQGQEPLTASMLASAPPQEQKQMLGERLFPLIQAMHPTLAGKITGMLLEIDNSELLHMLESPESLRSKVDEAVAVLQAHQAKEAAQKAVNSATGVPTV
Chain of Aryl hydrocarbon receptor (P35869 whole entry): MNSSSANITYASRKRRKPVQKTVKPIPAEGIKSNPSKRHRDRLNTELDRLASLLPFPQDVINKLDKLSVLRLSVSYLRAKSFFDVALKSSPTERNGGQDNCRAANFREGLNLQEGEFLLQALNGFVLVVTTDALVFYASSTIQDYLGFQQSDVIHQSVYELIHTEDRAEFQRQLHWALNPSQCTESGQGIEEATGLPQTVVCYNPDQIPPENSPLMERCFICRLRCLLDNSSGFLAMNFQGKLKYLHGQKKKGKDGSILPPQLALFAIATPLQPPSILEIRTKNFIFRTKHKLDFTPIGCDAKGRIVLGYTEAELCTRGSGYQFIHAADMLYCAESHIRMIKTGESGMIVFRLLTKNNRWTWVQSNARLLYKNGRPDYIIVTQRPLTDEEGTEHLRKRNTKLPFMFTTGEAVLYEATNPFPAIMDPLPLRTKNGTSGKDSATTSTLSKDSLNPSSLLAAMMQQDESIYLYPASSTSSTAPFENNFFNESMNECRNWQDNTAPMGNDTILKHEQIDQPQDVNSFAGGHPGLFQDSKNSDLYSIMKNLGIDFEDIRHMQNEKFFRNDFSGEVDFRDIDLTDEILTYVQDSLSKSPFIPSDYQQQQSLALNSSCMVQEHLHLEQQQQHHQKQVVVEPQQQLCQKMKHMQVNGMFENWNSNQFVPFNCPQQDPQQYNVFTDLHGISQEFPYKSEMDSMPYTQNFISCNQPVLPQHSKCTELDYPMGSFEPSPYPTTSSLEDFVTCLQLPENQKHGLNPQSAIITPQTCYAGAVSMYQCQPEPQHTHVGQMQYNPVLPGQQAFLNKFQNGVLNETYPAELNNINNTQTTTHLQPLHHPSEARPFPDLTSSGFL
Chain of DNA dC->dU-editing enzyme APOBEC-3G (Q9HC16 whole entry): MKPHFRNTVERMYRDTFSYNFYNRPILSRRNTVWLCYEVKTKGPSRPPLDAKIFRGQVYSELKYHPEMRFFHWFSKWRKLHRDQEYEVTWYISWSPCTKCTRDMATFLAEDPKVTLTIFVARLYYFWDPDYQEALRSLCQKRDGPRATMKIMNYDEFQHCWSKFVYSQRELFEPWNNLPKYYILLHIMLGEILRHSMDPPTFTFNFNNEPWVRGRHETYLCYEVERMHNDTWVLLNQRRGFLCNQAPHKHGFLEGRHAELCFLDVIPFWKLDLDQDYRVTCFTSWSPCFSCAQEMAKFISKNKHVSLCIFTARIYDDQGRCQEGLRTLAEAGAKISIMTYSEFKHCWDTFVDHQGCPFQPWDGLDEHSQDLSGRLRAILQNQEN
Chain of Eukaryotic translation initiation factor 4E (P63073 whole entry): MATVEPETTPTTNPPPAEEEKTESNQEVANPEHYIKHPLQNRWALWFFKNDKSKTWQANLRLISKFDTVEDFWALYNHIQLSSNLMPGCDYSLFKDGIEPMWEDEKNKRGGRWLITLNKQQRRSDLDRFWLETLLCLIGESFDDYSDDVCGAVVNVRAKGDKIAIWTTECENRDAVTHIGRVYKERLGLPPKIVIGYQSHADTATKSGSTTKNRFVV
Chain of Melanin-concentrating hormone receptor 1 (Q99705 whole entry): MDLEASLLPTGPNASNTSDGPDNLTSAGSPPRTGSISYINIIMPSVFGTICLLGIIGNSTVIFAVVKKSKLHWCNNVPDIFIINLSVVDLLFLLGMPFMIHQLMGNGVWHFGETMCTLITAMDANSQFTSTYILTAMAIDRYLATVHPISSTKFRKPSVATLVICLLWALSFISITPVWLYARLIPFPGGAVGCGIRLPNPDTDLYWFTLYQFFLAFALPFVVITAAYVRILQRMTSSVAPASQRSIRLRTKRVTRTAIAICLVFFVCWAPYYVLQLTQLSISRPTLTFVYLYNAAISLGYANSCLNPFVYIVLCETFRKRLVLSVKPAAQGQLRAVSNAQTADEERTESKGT

`CCOc1ccc(COc2c(Cl)cnn(-c3ccc(C)cc3)c2=O)cc1OCC`: the IC50 in [1] is > 20 µM (inactive).

Consider `COc1cc(F)ccc1Oc1c(Cl)cnn(-c2ccc(C)cc2)c1=O`, for which the IC50 is 9.7 µM (active) in experiment [1] and 9.5 µM (active) in [2].

On to `O=C(N/N=C/c1c[nH]c2ccccc12)C1COc2ccccc2O1` (centres undefined), for which the EC50 in experiment [3] was 5.67 µM (active). Besides, in [4], the IC50 was > 64 µM (inactive).

Turning to `CCCNC(=O)c1ccc2c(O)c(O)c(-c3ccc(C)cc3)nc2c1`, the 50% effective concentration (EC50) in experiment [5] is > 120 µM (not active); in [6], 9.71 µM (active); at Caspase-7, > 85.3 µM (inactive); at Caspase-3, > 85.3 µM (inactive); in experiment [8], 8.86 µM (active). Moreover, the IC50 in the experiment on H9c2 was > 79 µM (inactive); in experiment [7] it was > 119 µM (inactive); at Exodeoxyribonuclease V, > 119 µM (inactive). Moreover, the AC50 in the experiment with INS1 was 7.24 µM (active).

Take `Cc1ccc(-c2cc(C(F)(F)F)c(C#N)c(SCCC#N)n2)o1`: the EC50 on Caspase-7 and at Caspase-3 was > 85.2 µM (inactive) throughout.

Regarding `O=C(Nc1ccc(N2CCOCC2)c(S(=O)(=O)Nc2ccc(Cl)cc2)c1)c1cnccn1`, the IC50 was > 66 µM (inactive) in experiment [9], > 66 µM (inactive) in experiment [10] and 51.6 µM (active) in experiment [11].
